Data as given in patent US4816487A, “1-(2-hydroxyaryl)-alkane-1-on-oximes-procedure of preparation and use in pharmaceuticals” (Humboldt-Universitaet zu Berlin, priority 1985, dated 1989).

Key:
[1] = test system: trachea isolated from guinea pig; assay: carbachol-induced contraction of trachea isolated from guinea pig; details: spasm by 3.9 μM carbachol; clearly detectable even at 50 μM of active substance
Experimental: Action of 5-methyl-2-hydroxy-laurophenone-oxime on carbachol-induced contraction of trachea isolated from guinea pig:
The compound was checked for anti-asthmatic activity by means of measuring methods well established and known from the literature (cf p. 5) but modified for the purpose of this invention, using a tracheal spiral isolated from guinea pig. Measurements were conducted in thermostat-controlled organ bath in isotonic condition, using a contraction gauge with lever-type sensor, measuring coil, and measuring amplifier (inductive measurement by means of high-frequency oscillating circuit). Air was used for gassing. The suspension solution was of the following composition: 39.46 g of sodium chloride, 2.2 g of potassium chloride, 6.07 g of tris, 1.0 g of calcium chloride, 9.9 g of glucose, 1.0 ml of saturated magnesium chloride solution, 43 ml 1N hydrochloric acid per 5 l, pH 7.4.
Spasm was induced by 3.9 μM of carbachol.

[2] = test system: lung strip isolated from guinea pig; assay: arachidonic acid-induced contraction of lung strip isolated from guinea pig; details: Cavia porcellus; 10 μM compound; 0.1 μM to 100 μM arachidonic acid; read-out: reduction in contractile response to arachidonic acid
Text: Action of 5-methyl-2-hydroxy-laurophenone-oxime on arachidonic acid-inducedcontraction of lung strip isolated from guinea pig:
The experimental arrangement for this test system was analogous to that described in Example 15, through lung strip isolated from guinea pig was the subject of testing. Contraction, in this test, was induced by rising concentrations of arachidonic acid (concentrated solution in ethanol, kept in N2 atmosphere) and cumulatively measured.

rat's paw = assay: carrageenin-induced oedema of rat's paw; type: in vivo; details: 50 mg/kg i.p.
Text: This method is an adequate model of asthma bronchiale forms in experimental animals with involvement of IgE-dependent and IgG-dependent allergic reactions /R. Andersson, Brit. J. Pharmacol. 77, 301 (1982)/. The conclusion was, therefore, drawn that the comounds of general Formula I, according to this invention, should, as well, have clearly pronounced antiphlogistic properties. That conclusion was positively verified in vivo by an appropriate inflammatory model in the context of an animal experiment, using carragheenin--induced oedema of rat's paw. The experimental model was handled according to a method proposed by Winter and co-workers /C. A. Winter, E. A. Risley, and G. W. Nuss, Proc. Soc. Exp. Biol. Med. 111, 544 (1962)/ (cf. Example 19).
Inhibition of carrageenin-induced oedema of rat's paw:
Testing is conducted by methods common in international practice /C.A. Winter, E. A. Risley and G. W. Nuss, Proc. Soc. Exp. Biol. Med. 111, 544 (1962)/. Ten rats received intraperitoneal injections of 50 mg/kg body weight of 5-methyl-2-hydroxy-laurophenone-oxime in parallel with 0.1 ml of 0.1-per-cent carrageenin solution (per animal). The development of paw oedema was measured in one-hour intervals, following application, and compared with manifestations in a control group.

[3] = target: T1, lipoxygenase from rabbit reticulocytes (Oryctolagus cuniculus, UniProt P12530); assay: inhibition of activity of lipoxygenase from rabbit reticulocytes; type: biochemical
T1 construct: Lipoxygenase from rabbit reticulocytes was obtained in electrophoretically and immunologically pure form; from tissue; host or cells: rabbit reticulocytes
T1 sequence (P12530 1-663): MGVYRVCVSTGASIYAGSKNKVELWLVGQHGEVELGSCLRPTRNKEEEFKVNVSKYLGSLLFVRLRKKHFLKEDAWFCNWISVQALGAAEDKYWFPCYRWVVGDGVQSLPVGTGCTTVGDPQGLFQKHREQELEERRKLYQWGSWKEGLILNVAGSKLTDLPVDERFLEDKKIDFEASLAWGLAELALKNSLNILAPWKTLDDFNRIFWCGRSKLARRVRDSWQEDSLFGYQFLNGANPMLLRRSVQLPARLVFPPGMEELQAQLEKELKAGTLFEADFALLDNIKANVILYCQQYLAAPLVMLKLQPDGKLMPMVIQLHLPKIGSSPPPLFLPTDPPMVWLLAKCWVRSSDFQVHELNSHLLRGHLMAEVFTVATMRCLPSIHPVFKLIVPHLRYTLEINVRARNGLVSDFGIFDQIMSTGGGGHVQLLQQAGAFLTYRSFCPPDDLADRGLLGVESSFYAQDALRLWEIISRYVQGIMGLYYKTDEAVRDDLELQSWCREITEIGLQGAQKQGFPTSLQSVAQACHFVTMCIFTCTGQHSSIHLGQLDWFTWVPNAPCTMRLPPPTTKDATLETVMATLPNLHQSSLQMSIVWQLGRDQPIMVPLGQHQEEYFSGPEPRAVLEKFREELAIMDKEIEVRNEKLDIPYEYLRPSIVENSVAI
Experimental: Persuasive evidence to inhibition of lipoxygenase was produced by a suitable animal lipoxygenase which had been isolated from rabbit reticulocytes, using a method by Rapoport and coworkers /S. M. Rapoport et al., Eur. J. Biochem. 96, 545 (1979)/. A final concentration of 1 mM of most of the compounds, according to this invention, produced inhibition of 90 percent or more (cf. Example 20). Significant inhibition was even recordable from a final concentration of 0.1 mM of some of the compounds, according to this invention. Substance concentrations were varied to determine the titration curves of inhibition and from these the half-inhibition concentrations (I50 -values). A half-inhibition concentration of 7 μM was established for 5-methyl-2-hydroxy-laurophenone-oxime, an oxime of high anti-asthmatic effectiveness.
Inhibition of activity of lipoxygenase from rabbit reticulocytes:
Lipoxygenase from rabbit reticulocytes was obtained in electrophoretically and immunologically pure form by means of the method described in the literature /S. M. Rapoport et al., Eur. J. Biochem. 96, 545 (1979)/. Lipoxygenase activity was determined at 25° C. by amperometric measurement of oxygen consumption by means of a Clark electrode in the following system: 0.1M potassium phosphate, pH 7.4, with 0.2-per-cent sodium cholate and 0.53 mM linoleic acid. The enzyme concentration was […] in the sample for measurement. The substances submitted for testing were dissolved in methyl glycol (fresh distillation in vacuum) and pre-incubated ten minutes with the enzyme at measurement temperature and in the absence of sodium cholate and linoleic acid. […] No remarkable inhibition occurred to control samples under these conditions. Enzyme reaction was started by addition of sodium cholate and linoleic acid. The titration curve of inhibition and, consequently, the concentrations required for inhibition by the order of 50 per cent were determined by variation of active substance concentrations. For comparison, the compounds were tested also on commercial lipoxygenase-1 from soybean.

solubility in water = type: physicochemical; details: visible from unambiguous clouding of the sample

## CCCCCCCCCCCC(=NO)c1cc(C)ccc1O [5-methyl-2-hydroxy-laurophenone-oxime]
[1]
  dilatation after carbachol-induced spasm: strong dilatation
[2]
  inhibition at 10 µM: 70%
rat's paw; 0.5 hr, + significant, P < 0.05
  Inhibition of carrageenin-induced oedema: 43%
rat's paw; 1 hr, + significant, P < 0.05
  Inhibition of carrageenin-induced oedema: 47%
rat's paw; 2 hr, + significant, P < 0.05
  Inhibition of carrageenin-induced oedema: 34%
rat's paw; 3 hr, + significant, P < 0.05
  Inhibition of carrageenin-induced oedema: 34%
rat's paw; 4 hr, not marked significant
  Inhibition of carrageenin-induced oedema: 31%
rat's paw; 5 hr, not marked significant
  Inhibition of carrageenin-induced oedema: 29%
[3]; limited by solubility, real I50 said to be very much lower, read-out: half-inhibition concentration (I50)
  IC50: 7 µM
[3]; ultimate concentration 1.0 mM, read-out: Inhibition (percent) of lipoxygenase from reticulocytes
  inhibition at 1000 µM: 100%
Solubility in water
  solubility in water: limited solubility in water
